Test results: patent publication US20020165127A1, “Methods for treating insulin resistance and identifying patients at risk for the disease” (SuperGen, Inc., priority 1996, published 2002)

Key:
bp3 = bp3 (Homo sapiens, UniProt P17936); conditions: cited from earlier work
[1] = tested on: patient suffering from reactive hypoglycemia; test: Treatment of reactive hypoglycemia; format: in vivo, human; conditions: long-acting controlled release formulation; for IGF-2 levels: serum
Experimental: A patient suffering from reactive hypoglycemia has a serum sample evaluated for IGF-1 and IGF-2 levels. IGF-1 levels are normal but IGF-2 levels are more than two standard deviations below the expected levels for a person of the same age, sex and body weight. The patient is treated by administering IGF-2 or 22K-GH in a long-acting controlled release formulation.

IGF-1 and IGF-2 = conditions: cited from earlier work

bp3, sequence (P17936 28-291): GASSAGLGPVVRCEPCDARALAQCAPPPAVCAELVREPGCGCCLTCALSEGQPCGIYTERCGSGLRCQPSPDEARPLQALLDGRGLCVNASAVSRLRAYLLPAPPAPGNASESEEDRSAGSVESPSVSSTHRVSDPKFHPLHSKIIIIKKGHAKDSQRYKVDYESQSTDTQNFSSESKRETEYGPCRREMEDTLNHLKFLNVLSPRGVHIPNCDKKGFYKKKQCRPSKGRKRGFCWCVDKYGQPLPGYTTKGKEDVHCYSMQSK

| Substance | affinity to bp3 (bp3) | hypoglycemic episodes [1] | IGF-2 levels [1] | effects on the synthesis and secretion of IGFs (IGF-1 and IGF-2) |
| --- | --- | --- | --- | --- |
| IGF-1: IGF polypeptide in serum that binds bp3 | equal affinity |  |  |  |
| IGF-2: IGF polypeptide; competes with insulin for binding to the insulin receptor | equal affinity | less frequent | increased |  |
| 22K-GH: the larger human growth hormone isoform |  | less frequent | increased | stimulate both IGF-1 and IGF-2 |
